What was measured:
[1] = test system: CMV; details: SOLSTICE, maribavir 400 mg BID vs IAT, cited from earlier work
[2] = test system: CMV; assay: Exposure–response analysis of efficacy, primary endpoint: confirmed CMV viremia clearance at week 8 (SOLSTICE); format: in vivo, human; details: for Probability of being responder, primary endpoint: AUCss 200 µg∙h/mL
Procedure: The exposure–response analyses for maribavir were based on data collected from transplant recipients with CMV infections that were refractory to treatment with ganciclovir, valganciclovir, foscarnet, or cidofovir in the phase 3 SOLSTICE study (ClinicalTrials.gov: NCT02931539). SOLSTICE was a multicenter, open-label, active-controlled study in which patients were randomized 2:1 to receive maribavir 400 mg BID or IAT for 8 weeks, with 12 weeks of follow-up. The primary endpoint was confirmed CMV clearance at the end of week 8, and the key secondary endpoint was achievement of CMV clearance and symptom control at the end of week 8, maintained through week 16. TE CMV mutation conferring resistance to maribavir was assessed as an exploratory endpoint. Full details of the SOLSTICE study have been published previously.
Posterior Bayes parameters of the final PopPK model were used to derive rich concentration–time profiles for maribavir. Actual dosing history and factors affecting the PK of maribavir (i.e., body weight and time-varying presence of strong CYP3A4 inhibitors or strong CYP3A4 inducers) were considered in the predictions.
Data set preparation, exploration, visualization of the data and exposure-response analyses were performed using R® (version 4.0.5 for efficacy and resistance analyses; version 4.0.2 for safety analysis) with comprehensive R® archive network (CRAN) and Certara Strategic Consulting (CSC) package. Firth correction on logistic regression was done based on library “logistf”. Logistic regressions with log-linear exposure effect or Emax exposure effect were performed using NONMEM Version VII (version 7.4).
Maribavir exposure parameters (AUCss, Cmax.ss, and Ctrough.ss) were combined with the primary and key secondary efficacy endpoints, and with TE CMV mutations conferring resistance to maribavir from the SOLSTICE study. The following covariates were included in the dataset to identify potential influencing factors: transplant type (HCT, SOT); CMV DNA level (high, intermediate, low) at baseline; symptom status (symptomatic or asymptomatic) at baseline; CMV resistant at baseline (yes, no); donor (D) and recipient (R) CMV serostatus (D+/R−, D+/R+, or D−/R+, D−/R−); antilymphocyte use (yes, no); immune function status as measured by total white blood cells from hematology panel at baseline; CMV-specific CD4 + CD69 + and CD8 + CD69 + T cells from immune function assay as continuous variables at baseline; enrolling region (North America, Europe, Asia Pacific); prior use of CMV prophylaxis (yes, no); age (as a continuous parameter) and age group (12 to < 18 years; 18 to < 45 years; 45 to < 65 years; ≥65 years); sex (male, female); race and ethnicity; TE CMV maribavir-resistant mutations (yes, no); and temporal identification of maribavir resistance (no, on maribavir treatment, post-maribavir treatment).
The exposure–response analyses were performed using a logistic regression model whereby a response can be defined as 0 (non-responder) or 1 (responder). Logistic regression analyses were performed to explore potential associations with maribavir exposure and the probability of response. The logistic regression model had the following form, assuming that maribavir exposure is included in the model:1 [drawing 1]
Pi is the probability of the event in the ith patient and α is the baseline Ln (odds) of the event. The model assumes a linear exposure effect on logit scale, with the parameter α representing the intercept, while β1 represents the slope linking the exposure parameter (X1) of maribavir (AUCss, Cmax.ss, and Ctrough.ss) to the response. The statistical significance of α and β1 was tested in the logistic regression models with a p value of < 0.05, and 95% CIs were provided for each parameter. The odds ratio (OR) for β1 was derived for a specific unit increment of the PK parameter. […]

[3] = primary endpoint, reference < 0.5%

Structure (SMILES): CC(C)Nc1nc2cc(Cl)c(Cl)cc2n1[C@H]1O[C@@H](CO)[C@H](O)[C@@H]1O [maribavir]
- Proportion of patients achieving key secondary endpoint (CMV viremia clearance and symptom control at end of week 8, maintained through week 16) [1]: 18.7%
- Proportion of patients achieving primary endpoint (confirmed CMV viremia clearance at week 8) ([1]; transplant recipients with refractory CMV): 55.7%
- Observed proportion of responders, primary endpoint ([2]; 1st quartile of AUCss (range 72.2–170)): 59%
- Observed proportion of responders, primary endpoint ([2]; 2nd quartile of AUCss (range 170–238)): 72%
- Observed proportion of responders, primary endpoint ([2]; 3rd quartile of AUCss (range 238–354)): 59%
- Observed proportion of responders, primary endpoint ([2]; 4th quartile of AUCss (range 354–802)): 38%
- Probability of being responder, primary endpoint ([2]; CD8 + CD69 + cell count ≥ 2%, no TE mutation): 90.0%
- Probability of being responder, primary endpoint ([2]; developed TE CMV maribavir-resistant mutation, CD8 + CD69 + < 0.5%): 1.3%
- Relationship between maribavir exposure and probability of CMV viremia clearance at week 8 ([2]; excluding 60 patients with TE CMV mutation conferring resistance, n = 171, p = 0.0709): no statistical exposure–efficacy relationship
- Patients meeting primary endpoint of confirmed CMV viremia clearance at week 8 ([2]; exposure–response population n = 231, 400 mg BID, 131 patients): 57%
- Relationship between maribavir exposure (AUCss) and probability of CMV viremia clearance at week 8 ([2]; n = 231, p = 0.008): negative relationship
- Probability of being responder, primary endpoint ([2]; no TE CMV maribavir-resistant mutation, CD8 + CD69 + < 0.5%): 74.2%
- OR (95% CI): treatment-emergent maribavir resistance on maribavir treatment ([2]; primary endpoint): 0.00457 (3.59 × 10^–5, 0.0333)
- Non-responders among patients with TE maribavir-resistant CMV mutations ([2]; primary endpoint, week 8): 81%
- Logistic regression Estimate (SE): baseline CD8+CD69+ cell count ≥2% [2, 3]: 1.19 (0.630)
- OR (95% CI): baseline CD8+CD69+ cell count not reported [2, 3]: 0.730 (0.328, 1.66)
- OR (95% CI): baseline CD8+CD69+ cell count ≥0.5% to <2% [2, 3]: 0.739 (0.289, 1.98)
- OR (95% CI): baseline CD8+CD69+ cell count ≥2% [2, 3]: 3.29 (1.07, 13.4)
